In the OligoGym collection:
Bases are written 5' to 3'; sugars and linkages follow in the same order, as letters with counts (s phosphorothioate, o phosphodiester; PS: all linkages phosphorothioate). The collection does not say whether C is 5-methylated. l = locked nucleic acid (LNA); d = 2'-deoxy (DNA)

Biological target: Tau
Experiment: rat primary cortical neurons, FLIPR, 25 uM ASO

| Sequence | calcium oscillation score |
| --- | --- |
| TATTTCCAAATTCACTTTTA (sugars lllddldddddddddlldll, PS) | 127 % of control |
| TATTTCCAAATTCACTTTTA (sugars llldlddddddddddldlll, PS) | 129 % of control |
| TATTTCCAAATTCACTTTTA (sugars llldldddddddddlddlll, PS) | 125 % of control |
| TATTTCCAAATTCACTTTTA (sugars llldldddddddddldldll, PS) | 108 % of control |
| TATTTCCAAATTCACTTTTA (sugars llldldddddddddllddll, PS) | 135 % of control |
| TCAAAATCCTTAATTTAACC (sugars l4 d12 l4, PS) | 70.7 % of control |
| TCAAACACACCTTCATTTAC (sugars l2 d14 l4, PS) | 82.2 % of control |
| TCAAACTAATATTAACACT (sugars l4 d11 l4, PS) | 80.8 % of control |
| TCAAATCAATTCTCATTTCA (sugars l3 d13 l4, PS) | 62 % of control |
| TCAACATTACCCTTAAATAT (sugars l4 d13 l3, PS) | 82.4 % of control |
| TCAACTCTTAGCATCCA (sugars l4 d11 l2, PS) | 37.5 % of control |
| TCAACTCTTAGCATCCAC (sugars l2 d13 l3, PS) | 50 % of control |
| TCAACTGGTTTGTAGA (sugars l3 d10 l3, PS) | 110 % of control |
| TCAACTGGTTTGTAGACTAT (sugars l3 d14 l3, PS) | 29.9 % of control |
| TCAATTCTCATTTCAACCTT (sugars l2 d15 l3, PS) | 70.7 % of control |
| TCAATTTCCCTGTTAAT (sugars l4 d11 l2, PS) | 53.4 % of control |
| TCAATTTGGAAAGATGAAAT (sugars l3 d14 l3, PS) | 0 % of control |
| TCACAAACCCTGCTTGGCCA (sugars l3 d14 l3, PS) | 27.6 % of control |
| TCACAACCCAAGATTCCC (sugars l2 d14 l2, PS) | 69.5 % of control |
| TCACACACATGATTATC (sugars l4 d9 l4, PS) | 78.5 % of control |
| TCACCACTTTAATCTGC (sugars l2 d12 l3, PS) | 45.7 % of control |
| TCACCACTTTAATCTGCC (sugars l2 d14 l2, PS) | 69 % of control |
| TCACTCATGCCTTAATC (sugars l4 d11 l2, PS) | 62 % of control |
| TCACTTTACACATTAAATTT (sugars l4 d12 l4, PS) | 62.5 % of control |
| TCAGATTTAATTCTCAC (sugars l4 d9 l4, PS) | 50.7 % of control |
| TCAGATTTTACTTCCACC (sugars l2 d13 l3, PS) | 57.5 % of control |
| TCAGCTAAGACCCTCAGGTT (sugars l3 d14 l3, PS) | 33 % of control |

| Sequence | calcium oscillation score |
| --- | --- |
| TCAGCTAGCGTGGCGA (sugars l3 d10 l3, PS) | 75.9 % of control |
| TCAGCTCTTCCATAAGCAGG (sugars l3 d14 l3, PS) | 38.5 % of control |
| TCAGCTTGTGGGTTTCAATC (sugars l3 d14 l3, PS) | 13.3 % of control |
| TCAGGTCAACTGGTTT (sugars l3 d10 l3, PS) | 95.9 % of control |
| TCAGGTCAACTGGTTTGTAG (sugars l3 d14 l3, PS) | 0 % of control |
| TCAGGTCTGGCATGG (sugars l3 d9 l3, PS) | 0 % of control |
| TCAGTCCTAATCCTGT (sugars l3 d10 l3, PS) | 53.3 % of control |
| TCATAAATGACTATACTTAT (sugars l3 d14 l3, PS) | 80.6 % of control |
| TCATAGTCACTCTGGT (sugars l3 d10 l3, PS) | 85.7 % of control |
| TCATCACCAAGTCCCAA (sugars l2 d12 l3, PS) | 61.7 % of control |
| TCATCGCTTCCAGTCC (sugars l3 d10 l3, PS) | 19.2 % of control |
| TCATCTTTTCTAGAAC (sugars l4 d8 l4, PS) | 77.3 % of control |
| TCATCTTTTCTAGAACC (sugars l4 d10 l3, PS) | 70.9 % of control |
| TCATCTTTTCTAGAACCC (sugars l3 d13 l2, PS) | 48.4 % of control |
| TCATGAGCACTAACTCTAAG (sugars l3 d14 l3, PS) | 35.7 % of control |
| TCATTCAGCCAATCAC (sugars l4 d9 l3, PS) | 52.4 % of control |
| TCATTCAGCCAATCACA (sugars l3 d11 l3, PS) | 45.6 % of control |
| TCATTTACCAATTATCTTTA (sugars l4 d13 l3, PS) | 48.8 % of control |
| TCATTTTTCTCAAGCTCC (sugars l2 d14 l2, PS) | 55.8 % of control |
| TCATTTTTTATTCATAACTT (sugars l4 d12 l4, PS) | 62.3 % of control |
| TCCAAAACATTCTCACCAAA (sugars l4 d14 l2, PS) | 85.7 % of control |
| TCCAAACTTTTACTCTG (sugars l3 d10 l4, PS) | 31.2 % of control |
| TCCAAAGCATCAAATCC (sugars l3 d11 l3, PS) | 85.5 % of control |
| TCCAAGTCAATGCCTGGCTT (sugars l3 d14 l3, PS) | 18.1 % of control |
| TCCAATACTAGATCTA (sugars l4 d9 l3, PS) | 71.9 % of control |
| TCCACAAACCAACTCAA (sugars l3 d10 l4, PS) | 99.5 % of control |
| TCCACAAACCAACTCAAC (sugars l4 d12 l2, PS) | 95.9 % of control |
